Results as given in patent US20230233569A1 (Revolution Medicines, Inc., priority 2020, published 2023).
Where two headings read alike, the source gives them in different places. Each block holds one compound with its values, some of them ahead of it.

Columns and labels:
[1] = tested on: NCI-H358 (K-Ras G12C); assay: CellTiter-Glo cell viability assay, 5-day treatment; type: cell-based; conditions: Homo sapiens
Description: Protocol: CellTiter-Glo® Cell Viability Assay
Note—The following protocol describes a procedure for monitoring cell viability of K-Ras mutant cancer cell lines in response to a compound of the invention. Other RAS isoforms may be employed, though the number of cells to be seeded will vary based on cell line used.
(§1) Test compounds (132.5 nL) were directly dispensed into the assay plates containing cells. […] On day 5, assay plates and their contents were equilibrated to room temperature for approximately 30 minutes. […] Luminescence was measured using the PerkinElmer Enspire. Data were normalized by the following: (Sample signal/Avg. DMSO)*100. The data were fit using a four-parameter logistic fit.
as §1, with “nl)” for “nL)”

[2] = target: KRAS G12V (Homo sapiens, UniProt P01116+P62937, G12V); assay: Disruption of BRAF RBD interaction with Ras (FRET / MOA assay, with Cyclophilin A); type: biochemical; conditions: KRAS G12V; read-out: KRAS G12V FRET data IC50
Sequence of KRAS G12V (P01116 1-169 isoform P01116-2 G12V limits assumed): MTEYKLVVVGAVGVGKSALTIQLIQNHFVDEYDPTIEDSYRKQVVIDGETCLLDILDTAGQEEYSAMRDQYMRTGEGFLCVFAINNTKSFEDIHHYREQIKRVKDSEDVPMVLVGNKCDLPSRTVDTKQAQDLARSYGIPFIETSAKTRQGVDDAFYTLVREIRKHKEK
Sequence of KRAS G12V (P62937 whole entry): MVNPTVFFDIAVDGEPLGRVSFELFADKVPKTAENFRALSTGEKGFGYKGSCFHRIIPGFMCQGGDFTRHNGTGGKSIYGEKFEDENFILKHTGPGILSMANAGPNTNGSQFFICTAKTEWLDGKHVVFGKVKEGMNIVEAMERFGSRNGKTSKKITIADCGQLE
Description: (§2) This protocol may also be executed substituting other Ras proteins or nucleotides.
(§3) The purpose of this biochemical assay was to measure the ability of test compounds to facilitate ternary complex formation between a nucleotide-loaded K-Ras isoform and Cyclophilin A; the resulting ternary complex disrupts binding to a BRAF^RBD construct, inhibiting K-Ras signaling through a RAF effector. Data is reported as IC50 values.
(§4) Compound was present in plate wells as a 10-point 3-fold dilution series starting at a final concentration of 30 μM. After incubation at 25° C. for 3 hours, a mixture of Anti-His Eu-W1024 and anti-GST allophycocyanin was then added to assay sample wells at final concentrations of 10 nM and 50 nM, respectively, and the reaction incubated for an additional 1.5 hours. […] Compounds that facilitate disruption of a K-Ras:RAF complex were identified as those eliciting a decrease in the TR-FRET ratio relative to DMSO control wells.
as §3, with “BRAF^RBDD” for “BRAF^RBD”

[3] = target: KRAS G12C (Homo sapiens, UniProt P01116+P62937, G12C); assay: as above; type: biochemical; conditions: KRAS G12C; read-out: KRAS G12C FRET data IC50
Sequence of KRAS G12C (P01116 1-169 isoform P01116-2 G12C): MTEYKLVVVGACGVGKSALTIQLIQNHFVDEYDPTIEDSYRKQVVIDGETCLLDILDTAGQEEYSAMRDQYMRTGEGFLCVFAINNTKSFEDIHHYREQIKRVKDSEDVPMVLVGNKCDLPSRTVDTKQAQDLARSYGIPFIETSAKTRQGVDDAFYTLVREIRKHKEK
Sequence of KRAS G12C (P62937 whole entry): as the sequence (P62937 whole entry) above
Description: as §2, §3, §4
as §3, with “BRAF^RBDD” for “BRAF^RBD”

[4] = target: KRAS G12S (Homo sapiens, UniProt P01116+P62937, G12S); assay: as above; type: biochemical; conditions: read-out: KRAS G12S FRET data, IC50
Sequence of KRAS G12S (P01116 1-169 isoform P01116-2 G12S limits assumed): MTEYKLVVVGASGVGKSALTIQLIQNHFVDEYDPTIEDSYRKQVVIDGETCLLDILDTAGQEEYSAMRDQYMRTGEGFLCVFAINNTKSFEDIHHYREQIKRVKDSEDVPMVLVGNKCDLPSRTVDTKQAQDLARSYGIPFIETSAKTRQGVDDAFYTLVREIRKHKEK
Sequence of KRAS G12S (P62937 whole entry): as the sequence (P62937 whole entry) above
Description: as §2, §3, §4
as §3, with “BRAF^RBDD” for “BRAF^RBD”

[5] = target: KRAS G13C (Homo sapiens, UniProt P01116+P62937, G13C); assay: as above; type: biochemical; conditions: KRAS G13C; read-out: KRAS G13C FRET data IC50
Sequence of KRAS G13C (P01116 1-169 isoform P01116-2 G13C): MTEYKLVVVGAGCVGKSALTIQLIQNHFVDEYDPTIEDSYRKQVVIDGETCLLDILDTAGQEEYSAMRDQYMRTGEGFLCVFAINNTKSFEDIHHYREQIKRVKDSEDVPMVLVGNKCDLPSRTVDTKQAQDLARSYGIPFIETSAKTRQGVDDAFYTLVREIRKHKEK
Sequence of KRAS G13C (P62937 whole entry): as the sequence (P62937 whole entry) above
Description: as §2, §3, §4
as §3, with “BRAF^RBDD” for “BRAF^RBD”

[6] = target: KRAS G13D (Homo sapiens, UniProt P01116+P62937, G13D); assay: as above; type: biochemical; conditions: KRAS G13D; read-out: KRAS G13D FRET data IC50
Sequence of KRAS G13D (P01116 1-169 isoform P01116-2 G13D limits assumed): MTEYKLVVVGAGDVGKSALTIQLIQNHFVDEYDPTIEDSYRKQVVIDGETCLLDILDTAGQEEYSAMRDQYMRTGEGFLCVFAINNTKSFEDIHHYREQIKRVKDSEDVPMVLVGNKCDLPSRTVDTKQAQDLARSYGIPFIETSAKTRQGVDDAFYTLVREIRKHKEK
Sequence of KRAS G13D (P62937 whole entry): as the sequence (P62937 whole entry) above
Description: as §2, §3, §4
as §3, with “BRAF^RBDD” for “BRAF^RBD”

[7] = target: KRAS WT (Homo sapiens, UniProt P01116+P62937); assay: as above; type: biochemical; conditions: KRAS WT; read-out: KRAS WT FRET data IC50
Sequence of KRAS WT (P01116 1-169 isoform P01116-2 limits assumed): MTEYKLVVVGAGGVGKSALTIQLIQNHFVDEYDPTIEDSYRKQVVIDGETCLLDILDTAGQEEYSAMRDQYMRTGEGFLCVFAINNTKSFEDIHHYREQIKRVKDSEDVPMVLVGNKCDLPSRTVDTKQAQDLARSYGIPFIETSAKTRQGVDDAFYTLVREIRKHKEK
Sequence of KRAS WT (P62937 whole entry): as the sequence (P62937 whole entry) above
Description: as §2, §3, §4
as §3, with “BRAF^RBDD” for “BRAF^RBD”

[8] = target: NRAS G12C (Homo sapiens, UniProt P01111+P62937, G12C); assay: as above; type: biochemical; conditions: NRAS G12C; read-out: NRAS G12C FRET data IC50
Sequence of NRAS G12C (P01111 whole entry G12C): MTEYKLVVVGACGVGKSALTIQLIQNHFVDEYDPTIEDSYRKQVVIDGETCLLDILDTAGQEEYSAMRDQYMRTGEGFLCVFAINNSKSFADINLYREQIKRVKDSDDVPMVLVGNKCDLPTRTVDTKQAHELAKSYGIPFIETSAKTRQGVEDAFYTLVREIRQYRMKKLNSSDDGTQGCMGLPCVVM
Sequence of NRAS G12C (P62937 whole entry): as the sequence (P62937 whole entry) above
Description: as §2, §3, §4
as §3, with “BRAF^RBDD” for “BRAF^RBD”

[9] = NCI-H358, H358, K-Ras G12C, read-out: Additional H358 Cell Viability assay data (K-Ras G12C, IC50)
[10] = NCI-H358, 120 h, 5-day treatment, read-out: H358 Cell Viability assay data (K-Ras G12C, IC50)

IC50 [1, 10]: 10 to 100 nM
SMILES: CCn1c(-c2cccnc2[C@H](C)OC)c2c3cc(ccc31)-c1cc(O)cc(c1)C[C@H](NC(=O)[C@H](C(C)C)N(C)C(=O)[C@@H]1NC[C@@H]3C[C@@H]31)C(=O)N1CCC[C@H](N1)C(=O)OCC(C)(C)C2 [Example A217]

IC50 [1, 10]: 100 to 1000 nM
SMILES: CCn1c(-c2cccnc2[C@H](C)OC)c2c3cc(ccc31)-c1cc(O)cc(c1)C[C@H](NC(=O)[C@H](C(C)C)N(C)C(=O)C1CCCC1)C(=O)N1CCC[C@H](N1)C(=O)OCC(C)(C)C2 [Example A219]

IC50 [1, 9]: 100 to 1000 nM
SMILES: C=CC(=O)N1CC[C@H](C(=O)N(C)[C@H](C(=O)N[C@H]2Cc3nc(cs3)-c3ccc4c(n3)c(c(-c3cccnc3[C@H](C)OC)n4CC)CC(C)(C)COC(=O)[C@@H]3CCCN(N3)C2=O)C(C)C)C1 [Example A347, (2S)—N-[(7S,13S)-21-ethyl-20-{2-[(1S)-1-methoxyethyl]pyridin-3-yl}-17,17-dimethyl-8,14-dioxo-15-oxa-4-thia-9,21,25,27,28-pentaazapentacyclo[17.5.2.1^{2,5}.1^{9,13}.0^{22,26}]octacosa-1(25),2,5(25),19,22(26),23-hexaen-7-yl]-3-methy-2-{N-methyl-1-[(3S)-1-(prop-2-enoyl)pyrrolidin-3-yl]formamido}butanamide]

IC50 [1, 9]: 100 to 1000 nM | IC50 [3]: 1000 to 10000 nM | IC50 [4]: > 10000 nM | IC50 [2]: > 10000 nM | IC50 [5]: > 10000 nM | IC50 [6]: > 10000 nM | IC50 [7]: > 10000 nM | IC50 [8]: 1000 to 10000 nM
SMILES: C=CC(=O)N1CC(OC[C@H](C(=O)N[C@H]2Cc3cccc(c3)-c3ccc4c(c3)c(c(-c3cccnc3[C@H](C)OC)n4CC(F)(F)F)CC(C)(C)COC(=O)[C@@H]3CCCN(N3)C2=O)C(C)C)C1 [Example A453]

Second part, the compound before the results:

SMILES: CCn1c(-c2cccnc2COC)c2c3cc(ccc31)-c1cc(C)cc(c1)C[C@H](NC(=O)[C@H](C(C)C)N(C)C(=O)[C@H]1CCN(C(=O)C#CCN(C)C)C1)C(=O)N1CCC[C@H](N1)C(=O)OCC(C)(C)C2 [Example A157]
IC50 [1, 9]: < 10 nM

SMILES: CCn1c(-c2cccnc2[C@H](C)OC)c2c3cc(ccc31)-c1cc(O)cc(c1)C[C@H](NC(=O)[C@H](C(C)C)N(C)C(=O)[C@@H]1C[C@@H]1F)C(=O)N1CCC[C@H](N1)C(=O)OCC(C)(C)C2 [Example A160]
IC50 [1, 10]: 10 to 100 nM | IC50 [2]: 10 to 100 nM

SMILES: CCn1c(-c2cccnc2[C@H](C)OC)c2c3cc(ccc31)-c1csc(n1)C[C@H](NC(=O)[C@H](C(C)C)N1CCC3(CCN(C(=O)OC)C3)C1=O)C(=O)N1CCC[C@H](N1)C(=O)OCC(C)(C)C2 (stereo partly drawn) [Example A221]
IC50 [1, 10]: 100 to 1000 nM

SMILES: CCn1c(-c2cccnc2[C@H](C)OC)c2c3cc(ccc31)-c1cc(O)cc(c1)C[C@H](NC(=O)[C@H](C(C)C)N(C)C(=O)[C@@H]1C[C@@H]1C)C(=O)N1CCC[C@H](N1)C(=O)OCC(C)(C)C2 [Example A223]
IC50 [1, 10]: 10 to 100 nM

SMILES: C=CC(=O)N1CC[C@H](C(=O)N(C)[C@H](C(=O)N[C@H]2CCC(=O)N(C)Cc3ccc4c(c3)c(c(-c3cccnc3[C@H](C)OC)n4CC)CC(C)(C)COC(=O)[C@@H]3CCCN(N3)C2=O)C(C)C)C1 [Example A500]
IC50 [1, 9]: > 1000 nM | IC50 [3]: > 10000 nM | IC50 [6]: > 10000 nM | IC50 [8]: > 10000 nM

SMILES: C=CC(=O)Nc1cnc(C(=O)N(C)[C@H](C(=O)N[C@H]2Cc3cccc(c3)-c3ccc4c(c3)c(c(-c3cccnc3[C@H](C)OC)n4CC)CC(C)(C)COC(=O)[C@@H]3CCCN(N3)C2=O)C(C)C)n1C [Example A525]
IC50 [1, 9]: < 10 nM
